Assay results published in patent US20150329558A1, “FUSED HETEROCYCLIC COMPOUNDS AS ION CHANNEL MODULATORS” (Gilead Sciences, Inc., priority 2011, published 2015).
Read-outs that look alike come from different tables or passages of the source.

How the values were obtained:
[1] = target: wild-type human cardiac sodium channel, hNav1.5 (peak INa) (Homo sapiens, UniProt Q14524); assay: Peak INa screening assay (tonic and use-dependent block); assay type: cell-based
How it was run: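 Whole-cell automated patch clamp, HEK293 stably expressing hNav1.5 alpha without beta subunits, 23-25° C, holding −100 mV; bath Na⁺ reduced to 20 mM, CsF-based intracellular pH 7.4. Test compound 1 μM; tonic block at 0.1 Hz, use-dependent block at 3 Hz, % peak block after rundown correction.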

anesthetized rabbits = assay: Ischemia-induced ST segment elevation in anesthetized rabbits; assay type: in vivo; settings: rabbit; for area under curve (AUC) for the ST segment height reduced (vs. control): 15 min LAD ischemia, iv bolus
Method: This study was undertaken to determine the anti-ischemic effects of compounds of the present invention in an in vivo rabbit model.
Female New Zealand rabbits (3.0-4.0 kg) were purchased from Western Oregon Rabbitry. Animals were housed on a 12-h light and dark cycle and received standard laboratory chow and water. All experiments were performed in accordance with the Guide for the Care and Use of Laboratory Animals published by The National Research Council and with the experimental protocol approved by the Institutional Animal Care Committee of Gilead Sciences, Inc.
Rabbits were anesthetized with ketamine (35 mg/kg) and xylazine (5 mg/kg) intramuscular injection (im). A tracheotomy was performed and the trachea was intubated with an endotracheal tube. The animal was ventilated with room air supplemented with oxygen using a pressure control animal ventilator (Kent Scientific Corp., Torrington, Conn.) at a respiratory rate of 40 strokes/min and peak inspiration pressure of 10 mmH2O, which was adjusted to keep blood gases and pH within the physiological range (iSTAT clinic analyzer, Heska Corp.; Waukesha, Wis.). The left femoral artery was cannulated for the measurement of blood pressure (BP). Blood samples were also withdrawn from femoral artery. The right external jugular vein was cannulated for drug/vehicle administration. Needle electrodes were inserted subcutaneously into the limbs for recording of the surface electrocardiogram (ECG). The heart was exposed via an incision in the 4th intercostal space (4th and/or 5th ribs were cut for a clear surgical vision). The chest was opened and a pericardial cradle was formed using 4 retractors. A coronary artery occluder, comprised of a snare made of 5 cm PE-10 tubing with a 6-0 Prolene polypropylene suture in it, was placed loosely around the left anterior descending artery (LAD) at its origin. Two unipolar electrodes, made with teflon coated silver wire attached to a small patch of filter paper, were attached on the surface of the ischemic and normal regions of the left ventricle to record epicardial electrocardiogram. Reference electrodes were placed in the open incision of the neck. The body temperature of the animal was monitored via a rectal thermometer and maintained at 37-40° C. by adjusting the surface temperature of the surgical table. Regional ischemia (15 min) was induced by ligating the LAD followed by 15 min of reperfusion caused by releasing the ligation. The heart was excised at the end of the experiment and the LAD was re-ligated. The ischemic area was visualized by perfusing the heart with 1% Evans blue in saline and calculated as a percentage of total ventricular weight. Rabbits with ischemic area less than 10% or larger than 25% were excluded from the analysis. […]

[2] = % inhibition at 1 μM, tonic block, read-out: NAv1.5*-PEAK-TB-
[3] = % inhibition at 1 μM, use-dependent block 3 Hz, read-out: NAv1.5*-PEAK-UDB-3 HZ-
[4] = tonic block of peak INa, 0.1 Hz, 1 μM, read-out: Peak TB 1 μM
[5] = use-dependent block of peak INa, 3 Hz, 1 μM, read-out: Peak UDB 1 μM

Sequence of wild-type human cardiac sodium channel, hNav1.5 (peak INa) (Q14524 whole entry): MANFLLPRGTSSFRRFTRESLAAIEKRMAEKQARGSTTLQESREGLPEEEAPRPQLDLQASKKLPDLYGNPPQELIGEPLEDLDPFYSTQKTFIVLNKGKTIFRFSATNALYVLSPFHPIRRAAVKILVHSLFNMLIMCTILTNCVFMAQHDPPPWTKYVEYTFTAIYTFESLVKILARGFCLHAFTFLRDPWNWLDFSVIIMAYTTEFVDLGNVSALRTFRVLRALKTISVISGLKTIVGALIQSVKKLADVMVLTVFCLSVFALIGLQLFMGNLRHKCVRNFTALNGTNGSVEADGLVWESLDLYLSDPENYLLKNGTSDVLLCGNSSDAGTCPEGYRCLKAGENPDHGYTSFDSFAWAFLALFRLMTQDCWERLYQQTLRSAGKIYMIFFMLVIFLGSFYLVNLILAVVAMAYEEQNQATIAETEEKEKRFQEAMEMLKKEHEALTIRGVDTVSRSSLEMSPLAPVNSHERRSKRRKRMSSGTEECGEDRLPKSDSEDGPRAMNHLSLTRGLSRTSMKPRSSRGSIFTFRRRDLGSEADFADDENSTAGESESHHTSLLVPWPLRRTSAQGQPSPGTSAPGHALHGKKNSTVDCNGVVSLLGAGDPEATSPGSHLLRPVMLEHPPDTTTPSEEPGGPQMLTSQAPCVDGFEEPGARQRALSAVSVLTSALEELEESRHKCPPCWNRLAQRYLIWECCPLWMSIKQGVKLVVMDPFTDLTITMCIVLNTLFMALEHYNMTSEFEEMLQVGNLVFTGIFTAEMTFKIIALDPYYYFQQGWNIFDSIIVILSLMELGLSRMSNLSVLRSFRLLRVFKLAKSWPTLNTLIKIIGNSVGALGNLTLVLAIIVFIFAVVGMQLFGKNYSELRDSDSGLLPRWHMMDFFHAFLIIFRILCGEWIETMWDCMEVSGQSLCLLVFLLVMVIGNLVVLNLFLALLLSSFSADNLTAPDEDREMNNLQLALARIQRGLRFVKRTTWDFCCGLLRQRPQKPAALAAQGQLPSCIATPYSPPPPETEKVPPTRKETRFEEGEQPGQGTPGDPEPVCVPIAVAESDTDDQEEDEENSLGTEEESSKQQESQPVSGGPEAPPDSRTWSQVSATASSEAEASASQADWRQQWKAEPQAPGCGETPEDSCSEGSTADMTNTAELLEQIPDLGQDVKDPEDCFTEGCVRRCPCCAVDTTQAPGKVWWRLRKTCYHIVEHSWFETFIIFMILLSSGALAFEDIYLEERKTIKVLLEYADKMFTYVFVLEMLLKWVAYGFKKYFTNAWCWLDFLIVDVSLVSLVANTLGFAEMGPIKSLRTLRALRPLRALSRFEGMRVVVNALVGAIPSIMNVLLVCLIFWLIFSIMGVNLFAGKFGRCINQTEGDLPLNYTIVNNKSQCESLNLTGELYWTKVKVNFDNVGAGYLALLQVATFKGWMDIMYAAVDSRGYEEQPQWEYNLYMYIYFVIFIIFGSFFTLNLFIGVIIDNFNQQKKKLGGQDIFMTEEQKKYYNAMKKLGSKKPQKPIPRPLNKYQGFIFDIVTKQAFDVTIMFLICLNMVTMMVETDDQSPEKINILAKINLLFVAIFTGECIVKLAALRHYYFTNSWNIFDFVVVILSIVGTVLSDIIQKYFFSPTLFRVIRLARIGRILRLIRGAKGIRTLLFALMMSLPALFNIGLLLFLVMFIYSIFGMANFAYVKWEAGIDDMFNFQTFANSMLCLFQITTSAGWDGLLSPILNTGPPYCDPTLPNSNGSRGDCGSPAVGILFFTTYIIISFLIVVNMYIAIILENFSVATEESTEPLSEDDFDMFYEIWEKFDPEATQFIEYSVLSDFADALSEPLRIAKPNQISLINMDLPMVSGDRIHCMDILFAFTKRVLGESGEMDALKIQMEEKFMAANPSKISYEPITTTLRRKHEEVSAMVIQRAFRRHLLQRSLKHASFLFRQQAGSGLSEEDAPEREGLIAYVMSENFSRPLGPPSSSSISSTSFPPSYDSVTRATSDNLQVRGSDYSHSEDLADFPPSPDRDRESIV

| Compound | inhibition at 1 µM [1, 2] | inhibition at 1 µM [1, 3] | inhibition at 1 µM [1, 4] | inhibition at 1 µM [1, 5] | area under curve (AUC) for the ST segment height reduced (vs. control) (anesthetized rabbits; 0.3 μM plasma concentration) | area under curve (AUC) for the ST segment height reduced (vs. control) (anesthetized rabbits; 0.7 μM plasma concentration) | effect on blood pressure (BP), heart rate (HR) and ECG intervals prior to the ischemia (anesthetized rabbits; at the plasma concentration levels studied) | ischemia-induced ST elevation (anesthetized rabbits; iv bolus 0.1, 0.2 and 0.4 mg/kg) |
| --- | --- | --- | --- | --- | --- | --- | --- | --- |
| O=C1c2cc(-c3ccc(C(F)(F)F)cc3)ccc2OCN1Cc1ccccn1 [VIII-1, 3-(pyridin-2-ylmethyl)-6-(4-(trifluoromethyl)phenyl)-2H-benzo[e][1,3]oxazin-4(3H)-one] | 35% | 26% | 35% | 26% |  |  |  |  |
| O=c1c2cc(-c3ccc(OC(F)(F)F)cc3)ccc2nnn1CC1(CN2CCOCC2)CC1 [II-40, 3-((1-(morpholinomethyl)cyclopropyl)methyl)-6-(4-(trifluoromethoxy)phenyl)benzo[d][1,2,3]triazin-4(3H)-one] | 15% | 29% | 15% | 29% |  |  |  |  |
| Cc1noc(Cn2nnc3ccc(-c4ccc(OC(F)(F)F)cc4)cc3c2=O)n1 [II-3, 3-((3-methyl-1,2,4-oxadiazol-5-yl)methyl)-6-(4-(trifluoromethoxy)phenyl)benzo[d][1,2,3]triazin-4(3H)-one] | 19% | 10% | 19% | 10% |  |  |  |  |
| O=c1c2cc(-c3ccc(OC(F)(F)F)cc3)ccc2nnn1Cc1noc(C2CC2)n1 [II-14, 3-((5-cyclopropyl-1,2,4-oxadiazol-3-yl)methyl)-6-(4-(trifluoromethoxy)phenyl)benzo[d][1,2,3]triazin-4(3H)-one] | 7% | 1% | 7% | 1% | 19% | 75% | no significant effect | dose-dependently prevented the ischemia-induced ST elevation |
| O=c1c2cc(-c3ccc(OC(F)(F)F)cc3)ccc2nnn1Cc1noc(-c2ccccn2)n1 [II-54, 3-((5-(pyridin-2-yl)-1,2,4-oxadiazol-3-yl)methyl)-6-(4-(trifluoromethoxy)phenyl)benzo[d][1,2,3]triazin-4(3H)-one] | 5% | 8% | 5% | 8% |  |  |  |  |
| O=C1c2cc(-c3ccc(OC(F)(F)F)cc3)ccc2OCN1Cc1ccccn1 [VIII-3, 3-(pyridin-2-ylmethyl)-6-(4-(trifluoromethoxy)phenyl)-2H-benzo[e][1,3]oxazin-4(3H)-one] | 21% | 12% | 21% | 12% |  |  |  |  |
| O=C(c1ncccn1)N1CCc2ccc(-c3ccc(C(F)(F)F)cc3)cc2C1 [IX-7, pyrimidin-2-yl(7-(4-(trifluoromethyl)phenyl)-3,4-dihydroisoquinolin-2(1H)-yl)methanone] | 12% | 17% | 12% | 17% |  |  |  |  |
| O=c1c2cc(-c3ccc(OC(F)(F)F)cc3)ccc2nnn1Cc1nnc(C2CC2)o1 [II-67, 3-((5-cyclopropyl-1,3,4-oxadiazol-2-yl)methyl)-6-(4-(trifluoromethoxy)phenyl)benzo[d][1,2,3]triazin-4(3H)-one] | 12% | 7% | 12% | 7% |  |  |  |  |
| O=c1c2cc(-c3ccc(OC(F)(F)F)cc3)ccc2nnn1CCc1ncccn1 [II-18, 3-(2-(pyrimidin-2-yl)ethyl)-6-(4-(trifluoromethoxy)phenyl)benzo[d][1,2,3]triazin-4(3H)-one] | 15% | 13% | 15% | 13% |  |  |  |  |
| COc1cc(OC)nc(Cn2ncc3ccc(-c4ccc(OC(F)(F)F)cc4)cc3c2=O)n1 [III-19, 2-((4,6-dimethoxypyrimidin-2-yl)methyl)-7-(4-(trifluoromethoxy)phenyl)phthalazin-1 (2H)-one] | 14% | 19% | 14% | 19% |  |  |  |  |
| Cc1noc(Cn2cnc3ccc(-c4ccc(OC(F)(F)F)cc4)cc3c2=O)n1 [IV-6, 3-((3-methyl-1,2,4-oxadiazol-5-yl)methyl)-6-(4-(trifluoromethoxy)phenyl)quinazolin-4(3H)-one] | 12% | 7% | 12% | 7% |  |  |  |  |
| O=c1c2cc(-c3ccc(OC(F)(F)F)cc3)ccc2nnn1CCc1ccncn1 [II-17, 3-(2-(pyrimidin-4-yl)ethyl)-6-(4-(trifluoromethoxy)phenyl)benzo[d][1,2,3]triazin-4(3H)-one] | 11% | 7% | 11% | 7% |  |  |  |  |
| O=C1c2cc(-c3ccc(OC(F)(F)F)cc3)ccc2OCN1Cc1ncccn1 [VIII-20, 3-(pyrimidin-2-ylmethyl)-6-(4-(trifluoromethoxy)phenyl)-2H-benzo[e][1,3]oxazin-4(3H)-one] | 27% | 23% |  |  |  |  |  |  |
| O=c1c2cc(-c3ccc(OC(F)(F)F)cc3)ccc2nnn1CCOc1ncccn1 [II-32, 3-(2-(pyrimidin-2-yloxy)ethyl)-6-(4-(trifluoromethoxy)phenyl)benzo[d][1,2,3]triazin-4(3H)-one] | 16% | 21% | 16% | 21% |  |  |  |  |
| O=c1c2cc(-c3ccc(OC(F)(F)F)cc3)ccc2cnn1CCn1cccn1 [III-9, 2-(2-(1H-pyrazol-1-yl)ethyl)-7-(4-(trifluoromethoxy)phenyl)phthalazin-1(2H)-one] | 15% | 15% | 15% | 15% |  |  |  |  |
| N#Cc1ccnc(OCCn2nnc3ccc(-c4ccc(OC(F)(F)F)cc4)cc3c2=O)n1 [II-36, 2-(2-(4-oxo-6-(4-(trifluoromethoxy)phenyl)benzo[d][1,2,3]triazin-3(4H)-yl)ethoxy)pyrimidine-4-carbonitrile] | 7% | 8% | 7% | 8% |  |  |  |  |
